From PMC8406801, “Naringenin Inhibits Platelet Activation and Arterial Thrombosis Through Inhibition of Phosphoinositide 3-Kinase and Cyclic Nucleotide Signaling” (Frontiers in Pharmacology, 2021)
Several values for one entry are separate records, joined by “and”; a condition that tells them apart may be missing. Identical values can stand only once. Counter-ions that a name gives are not always drawn.

Legend:
washed rat platelets [1] = assay: ADP (10 μM)-induced aggregation of washed rat platelets; assay type: cell-based; details: Figure 7E
washed rat platelets [2] = assay: as above; assay type: cell-based; details: for platelet aggregation when incubated with naringenin after kinase inhibitor: naringenin 200 μmol/L; for Aggregation (%): raw data
Description: Platelet-rich plasma (PRP) was obtained, and after the addition of 100 ng/ml PGE1, platelets were pelleted at 900 × g for 10 min. […] Washed platelets were preincubated with vehicle (0.4% dimethyl sulfoxide) or various concentrations of naringenin in the presence of 2 mM CaCl2 for 5 min at 37°C, and then further stimulated by ADP (10 μM), thrombin (0.2 U/mL) or collagen (2 μg/ml). The maximum platelet aggregation rate was detected within 5 min with continuous stirring.
Platelet aggregation was induced by ADP using washed platelets and PRP. Washed platelets were preincubated with vehicle (containing 0.4% DMSO) or different doses (100, 200, 400, and 800 μM) of naringenin or naringin for 5 min before activation with ADP (10 μM) for 5 min.
(§1) FIGURE 1 Effects of naringenin and naringin on platelet aggregation. Chemical structure of naringin (A) and naringenin (B). The effects of naringin (C) or naringenin (D) on PRP were measured following stimulation with 10 μmol/L ADP. Rat washed platelet aggregation performed with or without different concentrations of naringin (E) or naringenin (F) was recorded after stimulation with 10 μmol/L ADP. Similarly, Washed platelet aggregation performed with vehicle or various concentrations of naringenin was recorded after stimulation with 0.2 U/mL thrombin (G) or 2 μg/ml collagen (H). WP represents washed platelets. Data are expressed as means ± SD (n = 6), the level of aggregation obtained at 5 min with vehicle-treated samples (0 μM) was taken as 100%. *p < 0.05, **p < 0.01, ***p < 0.001 compared with the vehicle control group.

[3] = test system: VASP Ser239 phosphorylation; assay: Immunoblotting of phospho-VASP (Ser239) in ADP-stimulated washed platelets, with or without PKA, PKG, PKC inhibitors; assay type: cell-based, rat; details: ADP 10 μmol/L
Description: For in vitro platelet aggregation, aliquots of washed platelets were preincubated with vehicle or various concentrations of naringenin for 5 min and stimulated with ADP (10 μmol/L) under stirring at 37°C for 5 min. For ex vivo platelet aggregation, PRP was incubated at 37°C for 5 min and stimulated with ADP (5 μmol/L) under stirring at 37 °C. The platelet aggregation was terminated by adding ethylenediaminetetraacetic acid (EDTA; 10 mM). Total protein was prepared using RIPA lysis buffer and protein content was determined by bicinchoninic acid (BCA) protein assay kit. Equal amounts of platelet proteins (30 μg) were separated on 10% SDS polyacrylamide gel electrophoresis (SDS-PAGE) and then transferred to poly vinylidene difluoride (PVDF) membranes and subjected to western blot. Blots were blocked with TBS-Tween 20 containing 5% BSA and probed with primary antibodies diluted in blocking solution at 4°C overnight followed by incubation with the corresponding HRP secondary antibodies. The protein bands were visualized using enhanced chemiluminescence (ECL).
VASP is a substrate for cAMP- and cGMP- dependent protein kinases, which mediate cAMP- and cGMP-dependent inhibitory signaling in platelets, respectively. Increased cAMP levels followed by the activation of cAMP-dependent protein kinase A (PKA) phosphorylates VASP at position Ser157, whereas the elevation of cGMP leads to VASP phosphorylation at position Ser239 by cGMP-dependent protein kinase G (PKG) ([Aszódi et al., 1999]; [Li et al., 2003a]). To further examine whether naringenin modulates cAMP- or cGMP-mediated inhibitory signaling, the phosphorylation of VASP (Ser157 and Ser239) in washed platelets on stimulation with ADP were measured in the absence or presence of naringenin (100, 200, 400, and 800 μM). […] To further confirm the antiplatelet effects of naringenin through PKA-dependent signaling, the effects of naringenin on platelet aggregation were measured in the presence of PKG inhibitor (Rp-8-Br-PET-cGMPS) and PKA inhibitor (H89).
FIGURE 7 Naringenin promotes VASP phosphorylation. The effects of naringenin on phosphorylation of VASP (at positions Ser 157 and Ser239) were measured in washed platelets upon stimulation with ADP (10 μmol/L) by western blotting (A). The blots shown are representative of three separate experiments. The phosphorylation levels were quantified by ImageJ 1.47v software. The level of phosphorylation obtained with vehicle control (0 μM) was taken as 1 (B,C). R represents the phosphorylation level in resting platelets. Data are expressed as means ± SD (n = 3). *p < 0.05, ***p < 0.001 compared with the vehicle control group. VASP phosphorylation at Ser239 was also analyzed in washed platelets incubated with 5 μmol/L PKA (H89), 30 μmol/L PKG (Rp-8-Br-PET-cGMPS), or 5 μmol/L PKC (GF109203X) inhibitors before treatment with naringenin (D). Washed platelets were incubated with vehicle or naringenin (200 μmol/L) at 37°C in the presence or absence of 5 μmol/L PKA (H89) or 30 μmol/L PKG (Rp-8-Br-PET-cGMPS) inhibitors. After treatment, platelets were stimulated with ADP (10 μmol/L) to trigger aggregation (E). Data are expressed as means ± SD (n = 6). ***p < 0.001 compared with the ADP-treated group, ^# p < 0.05, ^### p < 0.001 compared with naringenin alone or H89 alone.

[4] = test system: PRP (platelet-rich plasma); assay: ADP (10 μmol/L)-induced aggregation of PRP in vitro; assay type: cell-based, rat; details: PRP, ADP 10 μmol/L, single replicates; for Aggregation (%): raw data
Description: Washed rat platelets were prepared as described previously ([Gao et al., 2011]) with a minor modification. Briefly, rat blood was drawn from the abdominal aorta into the siliconized vacutainers containing 1:9 (v/v) 3.8% sodium citrate, supplemented with 100 ng/ml prostaglandin E1 (PGE1) and centrifuged at 300 × g for 6 min at room temperature. Platelet-rich plasma (PRP) was obtained, and after the addition of 100 ng/ml PGE1, platelets were pelleted at 900 × g for 10 min. Platelets were washed once in Tyrode’s buffer (12 mM NaHCO3, 138 mM NaCl, 5.5 mM glucose, 2.9 mM KCl, 2 mM MgCl2, 0.42 mM NaH2PO4, 10 mM HEPES, pH 7.4) containing 100 ng/ml PGE1, and finally resuspended in Tyrode’s buffer containing 0.02 U/mL apyrase to a final concentration of 4×10^8 cells/mL. Washed platelets were preincubated with vehicle (0.4% dimethyl sulfoxide) or various concentrations of naringenin in the presence of 2 mM CaCl2 for 5 min at 37°C, and then further stimulated by ADP (10 μM), thrombin (0.2 U/mL) or collagen (2 μg/ml). The maximum platelet aggregation rate was detected within 5 min with continuous stirring.
Platelet aggregation was induced by ADP using washed platelets and PRP. Washed platelets were preincubated with vehicle (containing 0.4% DMSO) or different doses (100, 200, 400, and 800 μM) of naringenin or naringin for 5 min before activation with ADP (10 μM) for 5 min. […] For example, naringenin, at doses of 100 and 800 μM, decreased ADP-induced platelet aggregation to 54.5 ± 6.2% and 6.3 ± 1.7%, respectively (n = 6; p < 0.001, control group platelet aggregation was taken as 100%) (Figure 1F). […] Because dietary flavonoids have been reported to bind plasma proteins and cause the lowering of inhibitory potency in PRP ([Wright et al., 2013]), the ability of naringenin and naringin on platelet function in PRP was investigated to compare their effects with washed platelets.
as §1

[5] = inhibitor 5 μmol/L before treatment with naringenin

O=c1c2nc(Br)n([C@@H]3O[C@@H]4CO[P@@](O)(=S)O[C@H]4[C@H]3O)c2nc2[nH]c(-c3ccccc3)cn12 [Rp-8-Br-PET-cGMPS, Rp-8-Bromo-β-phenyl-1, N2-ethenoguanosine 3´, 5´-cyclic mono-phosphorothioate sodium salt]
Aggregation (%) (washed rat platelets [1]; Rp-8-Br-PET-cGMPS (30 μM)+ADP (10 μM)): 67.3% and 69.8% and 64.5% and 66.3% and 65.0% and 70.4%
platelet aggregation when incubated with naringenin after kinase inhibitor (washed rat platelets [2]; inhibitor 30 μmol/L preincubation, ADP 10 μmol/L): did not affect the final extent of platelet aggregation
naringenin-induced phosphorylation of VASP at Ser239 after kinase inhibitor ([3]; inhibitor 30 μmol/L before treatment with naringenin): only small changes

CN(C)CCCn1cc(C2=C(c3c[nH]c4ccccc34)C(=O)NC2=O)c2ccccc21 [GF109203X, reference compound]
naringenin-induced phosphorylation of VASP at Ser239 after kinase inhibitor [3, 5]: only small changes

C[C@@H]1O[C@@H](O[C@H]2[C@H](Oc3cc(O)c4c(c3)O[C@H](c3ccc(O)cc3)CC4=O)O[C@H](CO)[C@@H](O)[C@@H]2O)[C@H](O)[C@H](O)[C@H]1O [Naringin, naringin, reference compound]
Aggregation (%) ([4]; compound 100 μM): 56.0% and 55.8% and 53.6% and 54.0% and 60.0%
Aggregation % of control ([4]; compound 100 μM, 100 µM): 97.5 % of control and 100.8 % of control and 93.6 % of control and 94.3 % of control and 104.8 % of control
Aggregation (%) ([4]; compound 200 μM): 54.6% and 53.1% and 52.4% and 49.6% and 54.8%
Aggregation % of control ([4]; compound 200 μM, 200 µM): 92.8 % of control and 97.1 % of control and 91.5 % of control and 86.6 % of control and 95.7 % of control
Aggregation (%) ([4]; compound 400 μM): 55.9% and 54.0% and 46.2% and 49.8% and 51.2%
Aggregation % of control ([4]; compound 400 μM, 400 µM): 96.9 % of control and 94.3 % of control and 80.7 % of control and 87.0 % of control and 89.4 % of control
Aggregation (%) ([4]; compound 800 μM): 46.8% and 40.4% and 51.9% and 43.4%
Aggregation % of control ([4]; compound 800 μM, 800 µM): 85.1 % of control and 85.9 % of control and 70.6 % of control and 90.7 % of control and 75.8 % of control
activity at 100 µM ([4]; Rattus norvegicus, compound 100 μM, read-out: Aggregation % of control): 97.8%
activity at 200 µM ([4]; Rattus norvegicus, compound 200 μM, read-out: Aggregation % of control): 95.4%
activity at 400 µM ([4]; Rattus norvegicus, compound 400 μM, read-out: Aggregation % of control): 97.6%
activity at 200 µM (washed rat platelets [2]; Rattus norvegicus, Platelet, washed platelets, ADP 10 μmol/L, compound 200 μM, single replicates, read-out: Aggregation % of control): 72.6%
activity at 400 µM (washed rat platelets [2]; Rattus norvegicus, Platelet, washed platelets, ADP 10 μmol/L, compound 400 μM, single replicates, read-out: Aggregation % of control): 79.8%
ADP-induced platelet aggregation (control group taken as 100%) (washed rat platelets [2]; washed platelets, ADP 10 μM, compound 800 μM, mean ± SD, n = 6): 70.8 ± 7.1%
Aggregation (%) (washed rat platelets [2]; washed platelets, ADP 10 μmol/L, compound 100 μM, single replicates): 66.8% and 55.6% and 57.3% and 61.8% and 52.0% and 65.0%
Aggregation % of control (washed rat platelets [2]; washed platelets, ADP 10 μmol/L, compound 100 μM, single replicates, 100 µM): 94.6 % of control and 78.7 % of control and 81.1 % of control and 87.5 % of control and 73.6 % of control and 92.0 % of control
Aggregation (%) (washed rat platelets [2]; washed platelets, ADP 10 μmol/L, compound 200 μM, single replicates): 51.3% and 57.7% and 55.0% and 59.4% and 50.0% and 54.0%
Aggregation % of control (washed rat platelets [2]; washed platelets, ADP 10 μmol/L, compound 200 μM, single replicates, 200 µM): 81.7 % of control and 77.8 % of control and 84.1 % of control and 70.8 % of control and 76.4 % of control
Aggregation (%) (washed rat platelets [2]; washed platelets, ADP 10 μmol/L, compound 400 μM, single replicates): 56.4% and 55.5% and 55.4% and 51.0% and 52.3% and 46.6%
Aggregation % of control (washed rat platelets [2]; washed platelets, ADP 10 μmol/L, compound 400 μM, single replicates, 400 µM): 78.6 % of control and 78.4 % of control and 72.2 % of control and 74.0 % of control and 66.0 % of control
Aggregation (%) (washed rat platelets [2]; washed platelets, ADP 10 μmol/L, compound 800 μM, single replicates): 58.1% and 48.7% and 49.2% and 43.6% and 47.5% and 53.0%
Aggregation % of control (washed rat platelets [2]; washed platelets, ADP 10 μmol/L, compound 800 μM, single replicates, 800 µM): 82.2 % of control and 68.9 % of control and 69.6 % of control and 61.7 % of control and 67.2 % of control and 75.0 % of control

O=S(=O)(NCCNCC=Cc1ccc(Br)cc1)c1cccc2cnccc12 [H89, N-[2-(p-bromocinnamylamino)ethyl]-5-isoquinolinesulfonamide]
Aggregation (%) (washed rat platelets [1]; H89 (5 μM)+ADP (10 μM)): 62.7% and 67.1% and 68.1% and 68.8% and 64.1% and 69.2%
level of platelet aggregation, inhibitor alone (washed rat platelets [2]; ADP 10 μmol/L, inhibitor 5 μmol/L, without naringenin): did not affect the level of platelet aggregation
platelet aggregation when incubated with naringenin after kinase inhibitor (washed rat platelets [2]; inhibitor 5 μmol/L pre-treatment, ADP 10 μmol/L): significantly restored platelet aggregation levels
naringenin-induced phosphorylation of VASP at Ser239 after kinase inhibitor [3, 5]: inhibited the increase in phosphorylation of VASP at Ser239
